# Values quoted from earlier work as cited in patent publication US20070243260A1, “Treatment of Childhood Asthma” (priority 2004, published 2007).
# Experiments:
# [1] = test system: asthma; details: single administration, metered-dose aerosol
# [2] = test system: asthma; details: inhaled; up to 8 hours appears to be maximal
smiles,measurement,setting,value
C[N+]1(C)CCC(OC(=O)C(O)(c2ccccc2)C2CCCC2)C1 (centres unmarked) [glycopyrrolate],Period of bronchodilation,[1],12 h
same,Duration of effective treatment,[2],up to 12 hours
